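Method: 48-hour compound exposure of cells in 96-well plates, five concentrations, linear interpolation of endpoints. The concentration for 50% growth inhibition is given as GI50.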 The source made the active and inactive calls. Rule as the data show it: active = GI50 up to about 1.1 µM and inactive = higher.
Assays:
Experiment in all cases: inhibition of tumour cell growth, NCI panel, 48 h
BT-549 = system: BT-549
CCRF-CEM = system: CCRF-CEM
EKVX = system: EKVX
HOP-62 = system: HOP-62
HOP-92 = system: HOP-92
HT-29 = system: HT-29
Hs-578T = system: Hs-578T
K562 = system: K562
M14 = system: M14
MCF7 = system: MCF7
MDA-MB-435 = system: MDA-MB-435
NCI-H460 = system: NCI-H460
NCI/ADR-RES = system: NCI/ADR-RES
OVCAR-5 = system: OVCAR-5
OVCAR-8 = system: OVCAR-8
SF-268 = system: SF-268
SF-539 = system: SF-539
SK-MEL-2 = system: SK-MEL-2
UACC-257 = system: UACC-257

Structure (SMILES)	GI50 (BT-549)	GI50 (CCRF-CEM)	GI50 (EKVX)	GI50 (HOP-62)	GI50 (HOP-92)	GI50 (HT-29)	GI50 (Hs-578T)	GI50 (K562)	GI50 (M14)	GI50 (MCF7)	GI50 (MDA-MB-435)	GI50 (NCI-H460)	GI50 (NCI/ADR-RES)	GI50 (OVCAR-5)	GI50 (OVCAR-8)	GI50 (SF-268)	GI50 (SF-539)	GI50 (SK-MEL-2)	GI50 (UACC-257)
N=C(N)SCc1ccc(Cl)cc1Cl.O=[N+]([O-])c1c(O)c(Cl)cc(Cl)c1Cl	16.3 µM (inactive)	3.18 µM (inactive)	15.3 µM (inactive)	14.5 µM (inactive)	11.5 µM (inactive)	11 µM (inactive)	20.7 µM (inactive)	4.35 µM (inactive)	11.4 µM (inactive)	11.5 µM (inactive)	6.22 µM (inactive)	10.6 µM (inactive)	19.5 µM (inactive)	16.3 µM (inactive)	24.3 µM (inactive)	17 µM (inactive)	12.9 µM (inactive)	12.7 µM (inactive)	7.73 µM (inactive)
O=C(O)CC1(C(=O)O)CCCCC1	> 100 µM (inactive)	> 100 µM (inactive)	> 100 µM (inactive)	> 100 µM (inactive)	> 100 µM (inactive)	> 100 µM (inactive)	> 100 µM (inactive)	> 100 µM (inactive)	> 100 µM (inactive)	> 100 µM (inactive)	> 100 µM (inactive)	> 100 µM (inactive)	> 100 µM (inactive)	> 100 µM (inactive)	> 100 µM (inactive)	> 100 µM (inactive)	> 100 µM (inactive)	> 100 µM (inactive)	> 100 µM (inactive)
O=C(c1ccccc1)c1c(C(F)(F)F)[n+]([O-])c2cc(Cl)c(Cl)cc2[n+]1[O-]	1.39 µM (inactive)	0.467 µM (active)	3.27 µM (inactive)	0.357 µM (active)	7.01 µM (inactive)	0.473 µM (active)	0.849 µM (active)	2.24 µM (inactive)	0.968 µM (active)	0.557 µM (active)	1.41 µM (inactive)	1.15 µM (inactive)	2.21 µM (inactive)	1.69 µM (inactive)	2.65 µM (inactive)	0.671 µM (active)	1.5 µM (inactive)	3.32 µM (inactive)	0.243 µM (active)
O=C1CC(=O)NC(NNS(=O)(=O)c2ccc(Cl)cc2)=N1	> 100 µM (inactive)	63.1 µM (inactive)		> 100 µM (inactive)	> 100 µM (inactive)	> 100 µM (inactive)	> 100 µM (inactive)	> 100 µM (inactive)	> 100 µM (inactive)	> 100 µM (inactive)	> 100 µM (inactive)	> 100 µM (inactive)	> 100 µM (inactive)	> 100 µM (inactive)	> 100 µM (inactive)	> 100 µM (inactive)	> 100 µM (inactive)	> 100 µM (inactive)	> 100 µM (inactive)
C/C(=N\NC(=S)Nc1ccc(C)cc1)c1nc2cccnc2[nH]1	1.23 µM (inactive)	0.452 µM (active)	0.61 µM (active)	3.17 µM (inactive)	6.38 µM (inactive)	0.681 µM (active)	10.8 µM (inactive)	2.9 µM (inactive)		0.721 µM (active)	2.94 µM (inactive)	1.32 µM (inactive)	4.04 µM (inactive)	1.95 µM (inactive)	3.05 µM (inactive)	0.587 µM (active)	1.14 µM (inactive)	10.8 µM (inactive)	2.38 µM (inactive)
CN(C)CCCNC(=O)CCNC(=O)c1cc(NC(=O)c2cc(NC(=O)c3cc(NC(=O)c4nccn4C)cn3C)cn2C)cn1C	> 100 µM (inactive)	> 46.8 µM (inactive)	> 100 µM (inactive)	> 100 µM (inactive)	> 100 µM (inactive)	> 100 µM (inactive)	> 100 µM (inactive)	> 100 µM (inactive)	> 100 µM (inactive)	> 100 µM (inactive)	> 100 µM (inactive)	> 100 µM (inactive)	> 100 µM (inactive)	> 100 µM (inactive)	> 100 µM (inactive)	44.8 µM (inactive)	54.6 µM (inactive)	> 100 µM (inactive)	> 100 µM (inactive)
O=C1Nc2c(Cl)cc(Cl)cc2/C1=N/NC(=O)c1ccncc1	37.8 µM (inactive)	29.4 µM (inactive)	28.5 µM (inactive)	25.8 µM (inactive)	33.2 µM (inactive)	27.4 µM (inactive)	40.6 µM (inactive)	27.9 µM (inactive)	46.2 µM (inactive)	32.9 µM (inactive)	16.5 µM (inactive)	46.7 µM (inactive)	23.1 µM (inactive)	61 µM (inactive)	20.6 µM (inactive)		21.6 µM (inactive)	19 µM (inactive)	19.6 µM (inactive)
C=CCN1C(=O)CC(=O)N(NC2=NNC3(C(=O)N2)c2ccccc2-c2ccccc23)C1=S	45 µM (inactive)	34 µM (inactive)	29.4 µM (inactive)	26.7 µM (inactive)	15.4 µM (inactive)	37.9 µM (inactive)	13.6 µM (inactive)	31.5 µM (inactive)	> 100 µM (inactive)	25.8 µM (inactive)	44.5 µM (inactive)	26.1 µM (inactive)	25.4 µM (inactive)	53.7 µM (inactive)	29.2 µM (inactive)	51.3 µM (inactive)	59.4 µM (inactive)	25.2 µM (inactive)	27.5 µM (inactive)
CCN1C(NCCO)=NS(=O)(=O)c2ccccc21	> 100 µM (inactive)	> 100 µM (inactive)	> 100 µM (inactive)	> 100 µM (inactive)	> 100 µM (inactive)	> 100 µM (inactive)	> 100 µM (inactive)	> 100 µM (inactive)	> 100 µM (inactive)	> 100 µM (inactive)	> 100 µM (inactive)	> 100 µM (inactive)	> 100 µM (inactive)	> 100 µM (inactive)	> 100 µM (inactive)	> 100 µM (inactive)	> 100 µM (inactive)	> 100 µM (inactive)	> 100 µM (inactive)
N#C/C(N)=C(\C#N)NC(=O)C(=O)N/C(C#N)=C(\N)C#N	> 100 µM (inactive)	77.6 µM (inactive)	> 100 µM (inactive)	> 100 µM (inactive)	> 100 µM (inactive)	> 100 µM (inactive)	> 100 µM (inactive)	> 100 µM (inactive)	> 100 µM (inactive)	> 100 µM (inactive)	> 100 µM (inactive)	> 100 µM (inactive)	> 100 µM (inactive)	> 100 µM (inactive)	> 100 µM (inactive)	> 100 µM (inactive)	> 100 µM (inactive)	> 100 µM (inactive)	> 100 µM (inactive)
OC(CCN1CCN(CCOC(c2ccccc2)c2ccccc2)CC1)c1ccccc1 (stereo unspecified)	23.8 µM (inactive)	27.7 µM (inactive)	19.7 µM (inactive)	20.5 µM (inactive)	22.5 µM (inactive)	15.9 µM (inactive)	21.1 µM (inactive)		18.1 µM (inactive)	22.4 µM (inactive)	18.5 µM (inactive)	18.6 µM (inactive)	21.5 µM (inactive)	33.2 µM (inactive)	17.7 µM (inactive)	22.8 µM (inactive)	20.1 µM (inactive)	15.8 µM (inactive)	17.9 µM (inactive)
CC1=NN(c2nc(N)nc(CCl)n2)CC1	31 µM (inactive)	14.9 µM (inactive)	16.1 µM (inactive)	11.4 µM (inactive)	19.3 µM (inactive)	30.4 µM (inactive)	26.3 µM (inactive)	18.2 µM (inactive)	25 µM (inactive)	38.1 µM (inactive)	32 µM (inactive)	20.9 µM (inactive)	24.2 µM (inactive)	20 µM (inactive)	20.8 µM (inactive)	32.7 µM (inactive)	24.5 µM (inactive)	26.6 µM (inactive)	69.5 µM (inactive)
C(#CP(c1ccccc1)c1ccccc1)P(C#CP(c1ccccc1)c1ccccc1)c1ccccc1	> 100 µM (inactive)	> 100 µM (inactive)	> 100 µM (inactive)	> 100 µM (inactive)	> 100 µM (inactive)	> 100 µM (inactive)	> 100 µM (inactive)	> 100 µM (inactive)	0.798 µM (active)	> 100 µM (inactive)	> 100 µM (inactive)	> 100 µM (inactive)	> 100 µM (inactive)	1.63 µM (inactive)	> 100 µM (inactive)	> 100 µM (inactive)	> 100 µM (inactive)	> 100 µM (inactive)	> 100 µM (inactive)
Nc1ncnc2c1ccn2COC(CO)CO	> 100 µM (inactive)	> 100 µM (inactive)	> 100 µM (inactive)	> 100 µM (inactive)	> 100 µM (inactive)	> 100 µM (inactive)	> 100 µM (inactive)	> 100 µM (inactive)	79.6 µM (inactive)	92 µM (inactive)	62.8 µM (inactive)	> 100 µM (inactive)	> 100 µM (inactive)	> 100 µM (inactive)	> 100 µM (inactive)	> 100 µM (inactive)	> 100 µM (inactive)	> 100 µM (inactive)	> 100 µM (inactive)
CN(C)CCn1c(=O)c2ccc3c4c(nn3CCN(C)C)c3cc(N)ccc3n(c1=O)c24	0.127 µM (active)	< 0.0126 µM (active)	0.0507 µM (active)	< 0.01 µM (active)	0.191 µM (active)	< 0.01 µM (active)	0.091 µM (active)	< 0.0133 µM (active)	0.0259 µM (active)	< 0.0207 µM (active)	< 0.0209 µM (active)	< 0.01 µM (active)	0.0349 µM (active)	< 0.027 µM (active)	0.0238 µM (active)	< 0.01 µM (active)	0.0291 µM (active)	< 0.0292 µM (active)	0.118 µM (active)
